{
  "source": "patent US20090158447A1",
  "about": "“TLR ligand and IL-1 Response-Injured Animal Model” (priority 2004, published 2009)",
  "format_in_all_cases": "cell-based, mouse",
  "key": {"peritoneal macrophages": {"test_system": "peritoneal macrophages", "test": "Time-course Northern blot analysis of IκB-ζ induction following LPS stimulation", "details": "wild-type peritoneal macrophages, 10 ng ml^−1 LPS, FIG. 3h", "description": "It is a figure showing immune responses in IκB-ζ-deficient cells, and kinetics of IκB-ζ induction. a, b, c, d. Peritoneal macrophages from wild-type and IκB-ζ-deficient mice were cultured with the indicated concentrations of PGN, R-848, CpG DNA in the coexistence of 10 ng ml^−1 LPS, 100 ng ml^−1 BLP, and 30 ng ml^−1 MALP-2, and in the presence of 30 ng ml^−1 IFN-γ for 24 h. Concentrations of IL-6, TNF-α, and NO in the culture supernatants were measured. The indicated values are means±SD of triplicates. “N.D.” means not detected. e. MEFs from wild-type and IκB-ζ-deficient mice were stimulated with 10 ng ml^−1 IL-1 and 10 ng ml^−1 TNF-α. Supernatents were collected for IL-6 analysis by ELISA 24 h later. Indicated values are means±SD of triplicates. “N.D.” means not detected. f. Peritoneal macrophages were stimulated with 10 ng ml^−1 LPS for the indicated periods. Total RNA (5 μg) was extracted and subjected to Northern blot analysis for investigating the expression of IL-6, TNF-α, and β-actin. g. […] Concentrations of IL-6 in the culture supernatants, with or without 10 ng ml^−1 IL-β, were measured by ELISA. […] Two-independent experiments with independently derived wild-type cells were quantitated by Phospholmager and mRNA amount was graphed for the indicated genes in arbitrary units (left for IκB-ζ and IL-6, right for TNF-α) relative to β-actin. […]"}, "RAW 264.7 cells": {"test_system": "RAW 264.7 cells", "test": "Luciferase reporter assay of IL-6 and ELAM1 promoters", "details": "RAW 264.7 cells transfected with luciferase reporter plasmids, FIG. 4a", "from_the_text": "It is a figure showing the result of an in vitro analysis of IκB-ζ on the IL-6 promoter. a. RAW 264.7 cells were transiently transfected with luciferase reporter constructs of either mouse IL-6 promoter or ELAM1 promoter together with either a control or the IκB-ζ expression plasmid. Luciferase activities were expressed as fold-increase over the background shown by lysates prepared from untransfected cells. Data are representative of three separate experiments. In all three experiments, cells were stimulated with the indicated concentrations of LPS. b. A certain amount of IκB-ζ expression vector was transiently introduced into untreated RAW 264.7 cells with the indicated amount of IL-6 reporter plasmid. Data are representative of three independent experiments. c. […] Precipitated DNA for the IL-6 κB site (left), 3′ region of IL-6 gene (center), or ELAM1 promoter (right) was measured by PCR (ChIP). […]\nReporter plasmids were transiently co-transfected into RAW 264.7 and P19 cells with either control or the IκB-ζ expression vectors by using SUPERFECT transfection reagent (QIAGEN). Luciferase activities of total cell lysates were measured using dual-luciferase reporter assay system (Promega, Maiden, Wis.) according to the method described previously (28, 29) (Nat Immunol. 3, 392-398 (2002); Nat Immunol. 2, 835-841 (2001))."}, "[1]": {"test_system": "peritoneal macrophages or lung-derived normal cells", "test": "Northern blot analysis of IκB-ζ, Bcl-3 and IκB-α expression on TLR/IL-1R stimulation", "details": "stimulation for 2 hours, FIG. 1a", "description": "Peritoneal macrophages and lung primary cells were stimulated with 100 ng ml^−1 BLP, 10 μg ml^−1 PGN, 30 ng ml^−1 MALP-2, 100 nM R-848, 3 μM CpG DNA, 10 ng ml^−1 IL-1β, 10 μg ml^−1 LPS, 100 ng ml^−1 flagellin, and 10 ng ml^−1 TNF-α for 2 hours. Total RNA (10 μg) was extracted and subjected to Northern blot analysis for investigating the expression of IκB-ζ, Bcl-3, IκB-α, and β-actin. b. MEFs from wild-type and MyD88-deficient mice were stimulated with 10 ng ml^−1 IL-1β and 10 μg ml^−1 LPS for the indicated periods. Total RNA (10 μg) was extracted and subjected to Northern blot analysis for investigating the expression of IκB-ζ, Cox-2, IP-10, and β-actin.\nWhether IκB-ζ would be induced in response to other TLR ligands was examined based on the fact that stimulation with IL-1 or LPS induces IκB-ζ in macrophage cell lines and fibroblasts, and that IL-1R and the receptor for LPS, TLR4, share the intracellular signaling pathways. […] On the other hand, other IκB family members, IκB-α and Bcl-3, were induced in response to TNF-αas well as a TLR ligand and IL-1. Taken together, unlike IκB-α and Bcl-3, the IκB-ζ induction is specifically detected on the TLR/IL-1R stimulation."}},
  "data": [
    {"substance": "lipopolysaccharide [LPS]", "values": [
      {"measurement": "time after stimulation at which IκB-ζ induction reached its maximum level", "setting": "peritoneal macrophages", "result": 120, "unit": "min"},
      {"measurement": "time after stimulation at which IκB-ζ induction was observed", "setting": "peritoneal macrophages", "result": 30, "unit": "min"},
      {"measurement": "activation of both IL-6 and ELAM1 promoters", "setting": "RAW 264.7 cells", "result": "dose-dependent manner"},
      {"measurement": "IκB-ζ mRNA induction", "setting": "[1]", "result": "strongly induced"}
    ]}
  ]
}
